Measured values reported in patent US20260347373A1, “HETEROCYCLIC COMPOUNDS, COMPOSITIONS THEREOF, AND METHODS OF TREATMENT THEREWITH” (BeOne Medicines I GmbH, priority 2023, published 2026).
Where two headings read alike, the source gives them in different places.

How the values were obtained:
WT KRAS = WT KRAS (Homo sapiens, UniProt P01116); assay: KRAS WT Probe Displacement Assay (TR-FRET, GDP-loaded); format: binding
Description: (§1) The synthetic routes of probe 1 and 2, which have been disclosed in PCT/CN2022/070676, are hereby incorporated herein.

KRAS G12D = KRAS G12D (Homo sapiens, UniProt P01116, G12D); assay: KRAS G12D Probe Displacement Assay (TR-FRET, GDP-loaded); format: binding
Chain of KRAS G12D (P01116 1-188 isoform P01116-2 G12D): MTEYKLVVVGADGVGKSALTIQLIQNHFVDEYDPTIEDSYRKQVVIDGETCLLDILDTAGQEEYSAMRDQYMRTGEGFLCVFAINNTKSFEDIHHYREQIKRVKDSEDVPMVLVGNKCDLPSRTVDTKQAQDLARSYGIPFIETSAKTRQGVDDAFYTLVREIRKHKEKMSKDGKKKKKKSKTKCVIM
Description: as §1

[1] = KRAS WT, read-out: KRAS^WT Probe Displacement Assay IC50
[2] = KRAS G12D, read-out: KRAS^G12D Probe Displacement Assay IC50

Chain of WT KRAS (P01116 1-188 isoform P01116-2): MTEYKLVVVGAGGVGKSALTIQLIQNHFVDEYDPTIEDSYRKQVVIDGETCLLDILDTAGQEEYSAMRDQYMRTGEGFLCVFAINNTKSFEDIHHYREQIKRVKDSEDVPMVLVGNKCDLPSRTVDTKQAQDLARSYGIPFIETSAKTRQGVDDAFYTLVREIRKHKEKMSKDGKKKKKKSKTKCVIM

Structure (SMILES)	IC50 (WT KRAS; [1]) [nM]	IC50 (KRAS G12D; [2]) [nM]	IC50 (WT KRAS; KRAS^WT Probe Displacement Assay IC50, KRAS WT) [nM]	IC50 (KRAS G12D; KRAS^G12D Probe Displacement Assay IC50, KRAS G12D) [nM]
Cc1cc(N)cc(-c2nc3c4c(nc(OC[C@H]5COC[C@H]5N(C)C)nc4c2F)N2C[C@H]4CC[C@H](N4)[C@H]2CCO3)c1C(F)(F)F [Example 41, (3S,4R)-4-((((6aR,7S,10R)-2-(5-amino-3-methyl-2-(trifluoromethyl)phenyl)-1-fluoro-5,6,6a,7,8,9,10,11-octahydro-4-oxa-3,11a,12,14,15-pentaaza-7,10-methanocyclohepta[4,5]cycloocta [1,2,3-de]naphthalen-13-yl)oxy)methyl)-N,N-dimethyltetrahydrofuran-3-amine]	3 to 1000	0.3 to 3	–	–
Cc1cc(N)cc(-c2nc3c4c(nc(OCC5(CN6CCC6)CC5)nc4c2F)N2C[C@H]4CC[C@H](N4)[C@H]2CCO3)c1C(F)(F)F [Example 78, 3-((6aR,7S,10R)-13-((1-(azetidin-1-ylmethyl)cyclopropyl)methoxy)-1-fluoro-5,6,6a,7,8,9,10,11-octahydro-4-oxa-3, 11a,12,14,15-pentaaza-7,10-methanocyclohepta [4,5]cycloocta [1,2,3-de]naphthalen-2-yl)-5-methyl-4-(trifluoromethyl)aniline]	3 to 1000	0.3 to 3	–	–
Cc1cc(N)cc(-c2nc3c4c(nc(OCC5(CN6CC[C@@H](F)C6)CC5)nc4c2F)N2C[C@H]4CC[C@H](N4)[C@H]2CCO3)c1C(F)(F)F [Example 86, 3-((6aR,7S,10R)-1-fluoro-13-((1-(((R)-3-fluoropyrrolidin-1-yl)methyl)cyclopropyl)methoxy)-5,6,6a,7,8,9,10,11-octahydro-4-oxa-3,11a,12,14,15-pentaaza-7,10-methanocyclohepta [4,5]cycloocta [1,2,3-de]naphthalen-2-yl)-5-methyl-4-(trifluoromethyl) aniline]	–	–	3 to 1000	< 0.3
CO[C@@H]1CN2C[C@H](F)C[C@]2(COc2nc3c4c(nc(-c5cc(N)cc(C)c5C(F)(F)F)c(F)c4n2)OCC[C@@H]2[C@@H]4CC[C@H](CN32)N4)C1 [Example 216, 3-((6aR,7S,10R)-1-fluoro-13-(((2R,6S,7aS)-2-fluoro-6-methoxytetrahydro-1H-pyrrolizin-7a(5H)-yl)methoxy)-5,6,6a,7,8,9,10,11-octahydro-4-oxa-3,11a,12,14,15-pentaaza-7,10-methanocyclohepta[4,5]cycloocta[1,2,3-de]naphthalen-2-yl)-5-methyl-4-(trifluoromethyl)aniline]	3 to 1000	< 0.3	–	–
Cc1cc(N)cc(-c2nc3c4c(nc(OCC5(CN6CC[C@H](F)C6)CC5)nc4c2F)N2C[C@H]4CC[C@H](N4)[C@H]2CCO3)c1C(F)(F)F [Example 157, 3-((6aR,7S,10R)-1-fluoro-13-((1-(((S)-3-fluoropyrrolidin-1-yl)methyl)cyclopropyl)methoxy)-5,6,6a,7,8,9,10,11-octahydro-4-oxa-3,11a,12,14,15-pentaaza-7,10-methanocyclohepta[4,5]cycloocta[1,2,3-de]naphthalen-2-yl)-5-methyl-4-(trifluoromethyl)aniline]	3 to 1000	< 0.3	–	–
Cc1cc(N)cc(-c2nc3c4c(nc(OCC5(CN(C)C)CC5)nc4c2F)N2C[C@H]4CC[C@H](N4)[C@H]2CCO3)c1C(F)(F)F [Example 56, 3-((6aR,7S,10R)-13-((1-((dimethylamino)methyl)cyclopropyl)methoxy)-1-fluoro-5,6,6a,7,8,9,10,11-octahydro-4-oxa-3,11a,12,14,15-pentaaza-7,10-methanocyclohepta[4,5]cycloocta [1,2,3-de]naphthalen-2-yl)-5-methyl-4-(trifluoromethyl)aniline]	3 to 1000	< 0.3	–	–
Cc1cc(N)cc(-c2nc3c4c(nc(OCC5(C)CC(F)CN(C6CCOCC6)C5)nc4c2F)N2C[C@H]4CC[C@H](N4)[C@H]2CCO3)c1C(F)(F)F (single isomer, unassigned) [Example 233]	3 to 1000	0.3 to 3	–	–
Cc1cc(N)cc(-c2nc3c4c(nc(OCC5(C)CN(CC6CC6)CC/C5=C\F)nc4c2F)N2C[C@H]4CC[C@H](N4)[C@H]2CCO3)c1C(F)(F)F (single isomer, unassigned) [Example 238]	3 to 1000	< 0.3	–	–
Cc1cc(N)cc(-c2nc3c4c(nc(OCC5(CN6CCC6)CC5(F)F)nc4c2F)N2C[C@H]4CC[C@H](N4)[C@H]2CCO3)c1C(F)(F)F (stereo partly drawn) [Example 19, 3-((6aR,7S,10R)-13-((1-(azetidin-1-ylmethyl)-2,2-difluorocyclopropyl)methoxy)-1-fluoro-5,6,6a,7,8,9,10,11-octahydro-4-oxa-3,11a,12,14,15-pentaaza-7,10-methanocyclohepta[4,5]cycloocta[1,2,3-de]naphthalen-2-yl)-5-methyl-4-(trifluoromethyl)aniline]	3 to 1000	< 0.3	–	–
[2H]C([2H])([2H])N1CC[C@H](OC)[C@H]1[C@H](C)Oc1nc2c3c(nc(-c4cc(N)cc(Cl)c4C(F)(F)F)c(F)c3n1)OCC[C@@H]1[C@@H]3CC[C@H](CN21)N3 [Example 218, 3-chloro-5-((6aR,7S,10R)-1-fluoro-13-((S)-1-((2R,3S)-3-methoxy-1-(methyl-d3)pyrrolidin-2-yl)ethoxy)-5,6,6a,7,8,9,10,11-octahydro-4-oxa-3,11a,12,14,15-pentaaza-7,10-methanocyclohepta[4,5]cycloocta[1,2,3-de]naphthalen-2-yl)-4-(trifluoromethyl)aniline]	0.3 to 3	< 0.3	–	–
Cc1cc(N)cc(-c2nc3c4c(nc(OCC5(CN6C[C@@H]7C[C@@H]7[C@H]6C)CC5)nc4c2F)N2C[C@H]4CC[C@H](N4)[C@H]2CCO3)c1C(F)(F)F [Example 171, 3-((6aR,7S,10R)-1-fluoro-13-((1-(((1S,2R,5R)-2-methyl-3-azabicyclo[3.1.0]hexan-3-yl)methyl)cyclopropyl)methoxy)-5,6,6a,7,8,9,10,11-octahydro-4-oxa-3,11a,12,14,15-pentaaza-7,10-methanocyclohepta[4,5]cycloocta[1,2,3-de]naphthalen-2-yl)-5-methyl-4-(trifluoromethyl)aniline]	3 to 1000	< 0.3	–	–
CO[C@H]1CCN(CC2(COc3nc4c5c(nc(-c6cc(N)cc(C)c6C(F)(F)F)c(F)c5n3)OCC[C@@H]3[C@@H]5CC[C@H](CN43)N5)CC2)C[C@H]1F [Example 185, 3-((6aR,7S,10R)-1-fluoro-13-((1-(((3R,4S)-3-fluoro-4-methoxypiperidin-1-yl)methyl)cyclopropyl)methoxy)-5,6,6a,7,8,9,10,11-octahydro-4-oxa-3,11a,12,14,15-pentaaza-7,10-methanocyclohepta[4,5]cycloocta[1,2,3-de]naphthalen-2-yl)-5-methyl-4-(trifluoromethyl)aniline]	3 to 1000	< 0.3	–	–
Cc1cc(N)cc(-c2nc3c4c(nc(OCC5(CN6C[C@@H]7C[C@@H]7[C@H]6CO)CC5)nc4c2F)N2C[C@H]4CC[C@H](N4)[C@H]2CCO3)c1C(F)(F)F [Example 97, ((1S,2S,5R)-3-((1-((((6aR,7S,10R)-2-(5-amino-3-methyl-2-(trifluoromethyl)phenyl)-1-fluoro-5,6,6a,7,8,9,10,11-octahydro-4-oxa-3,11a,12,14,15-pentaaza-7,10-methanocyclohepta [4,5]cycloocta,[1,2,3-de]naphthalen-13-yl)oxy)methyl)cyclopropyl)methyl)-3-azabicyclo [3.1.0]hexan-2-yl) methanol]	3 to 1000	< 0.3	–	–
Cc1cc(N)cc(-c2nc3c4c(nc(OCC5(CN6CCc7cnn(C)c7C6)CC5)nc4c2F)N2C[C@H]4CC[C@H](N4)[C@H]2CCO3)c1C(F)(F)F [Example 193]	3 to 1000	< 0.3	–	–
Cc1cc(N)cc(-c2nc3c4c(nc(OCC5(CN6CCC7(CC6)CC7(F)F)CC5)nc4c2F)N2C[C@H]4CC[C@H](N4)[C@H]2CCO3)c1C(F)(F)F [Example 158, 3-((6aR,7S,10R)-13-((1-((1,1-difluoro-6-azaspiro[2.5]octan-6-yl)methyl)cyclopropyl)methoxy)-1-fluoro-5,6,6a,7,8,9,10,11-octahydro-4-oxa-3,11a,12,14,15-pentaaza[7,10]methanocyclohepta[4,5]cycloocta[1,2,3-de]naphthalen-2-yl)-5-methyl-4-(trifluoromethyl)aniline]	0.3 to 3	< 0.3	–	–
Cc1cc(N)cc(-c2nc3c4c(nc(N5CC(C)(N(C)C)C5)nc4c2F)N2C[C@H]4CC[C@H](N4)[C@H]2CCO3)c1C(F)(F)F [Example 30]	3 to 1000	0.3 to 3	–	–
Cc1cc(N)cc(-c2nc3c4c(nc(OCC5(CN6[C@@H]7CC[C@H]6CC(F)(F)C7)CC5)nc4c2F)N2C[C@H]4CC[C@H](N4)[C@H]2CCO3)c1C(F)(F)F [Example 175, 3-((6aR,7S,10R)-13-((1-(((1R,5S)-3,3-difluoro-8-azabicyclo[3.2.1]octan-8-yl)methyl)cyclopropyl)methoxy)-1-fluoro-5,6,6a,7,8,9,10,11-octahydro-4-oxa-3,11a,12,14,15-pentaaza-7,10-methanocyclohepta[4,5]cycloocta[1,2,3-de]naphthalen-2-yl)-5-methyl-4-(trifluoromethyl)aniline]	3 to 1000	< 0.3	–	–
Cc1cc(N)cc(-c2nc3c4c(nc(OCC5(CN6CCC7(C6)CC7(F)F)CC5)nc4c2F)N2C[C@H]4CC[C@H](N4)[C@H]2CCO3)c1C(F)(F)F (single isomer, unassigned) [Example 138]	0.3 to 3	< 0.3	–	–
[2H]C([2H])([2H])N1CC[C@H](OC)[C@H]1[C@H](C)Oc1nc2c3c(nc(-c4cc(N)cc(C)c4C(F)(F)F)c(F)c3n1)OCC[C@@H]1[C@@H]3CC[C@H](CN21)N3 [Example 142, 3-((6aR,7S,10R)-1-fluoro-13-((S)-1-((2R,3S)-3-methoxy-1-(methyl-d3)pyrrolidin-2-yl)ethoxy)-5,6,6a,7,8,9,10,11-octahydro-4-oxa-3,11a,12,14,15-pentaaza-7,10-methano-cyclohepta[4,5]cycloocta [1,2,3-de]naphthalen-2-yl)-5-methyl-4-(trifluoromethyl)aniline]	3 to 1000	< 0.3	–	–
